In US4401604A, “Process for preparing thiosulfenamide derivatives of N-phosphonomethylglycine triesters” (Monsanto Company, priority 1981, dated 1983):

Legend:
Experiment in all cases: Post-emergence herbicidal activity, greenhouse
Type in all cases: in vivo
Sorghum = conditions: Table II; 5.6 kg/h; 4 WAT
Source text: (§1) A good grade of top soil is placed in aluminum pans having holes in the bottom and compacted to a depth of 0.95 to 1.27 cm. from the top of the pan. A predetermined number of seeds of each of several dicotyledonous and monocotyledonous annual plant species and/or vegetative propagules for the perennial plant species are placed on the soil and pressed into the soil surface. The seeds and/or vegetative propagules are covered with soil and leveled. The pans are then placed on a sand bench in the greenhouse and watered from below as needed. After the plants reach the desired age (two to three weeks), each pan except for the control pans is removed individually to a spraying chamber and sprayed by means of an atomizer operating at a positive air pressure of approximately 1.46 kg/cm^2 absolute. The atomizer contains 6 ml. of a solution or suspension of the chemical. In that 6 ml., is an amount of a cyclohexanone emulsifying agent mixture to give a spray solution or suspension which contains about 0.4% by weight of the emulsifier. The spray solution or suspension contains a sufficient amount of the candidate chemical in order to give application rates corresponding to those set forth in the tables. The spray solution is prepared by taking an aliquot of a 1.0% by weight stock solution or suspension of the candidate chemical in an organic solvent such as acetone or tetrahydrofuran or in water. The emulsifying agent employed is a mixture comprising 35 weight percent butylamine dodecylbenzene sulfonate and 65 weight percent of a tall oil ethylene oxide condensate having about 11 moles of ethylene oxide per mole of tall oil. The pans are returned to the greenhouse and watered as before and the injury to the plants as compared to the control is observed at approximately two and four weeks as indicated in the tables under WAT and the results recorded. In some instances, the two-week observations are omitted.
(§2) The post-emergence herbicidal activity index used in Table I is as follows:
(§3) The plant species utilized in these tests are identified by letter in accordance with the following legend: […]

Barnyardgrass = system: Barnyardgrass
Source text: as §1, §2, §3

Quackgrass = conditions: Table I, 4 WAT
Source text: as §1, §2, §3

Rice = conditions: Table II
Source text: as §1, §2, §3

Smartweed = system: Smartweed
Source text: as §1, §2, §3

Yellow Nutsedge = conditions: Table I, 4 WAT
Source text: as §1, §2, §3

Canada Thistle = conditions: Table I, 4 WAT
Source text: as §1, §2, §3

Panicum Spp = conditions: Table II
Source text: as §1, §2, §3

Hemp Sesbania = conditions: Table II
Source text: as §1, §2, §3

Cocklebur = system: Cocklebur
Source text: as §1, §2, §3

Wheat = conditions: Table II
Source text: as §1, §2, §3

Velvetleaf = system: Velvetleaf
Source text: as §1, §2, §3

Johnsongrass = conditions: Table I, 4 WAT
Source text: as §1, §2, §3

Question: With O=C(CN(CP(=O)(Oc1ccccc1)Oc1ccccc1)SSCCc1ccccc1)OCc1ccccc1 [IV, Glycine, N-[(diphenoxyphosphinyl)methyl]-N-[(2-phenylethyl)dithio]-, phenylmethyl ester] as the compound, how does the “post-emergence herbicidal activity index” value (Sorghum) read?
Answer: The value was 2 (50-74% control).

Question: And the “post-emergence herbicidal activity index” value (Barnyardgrass; Table I, 5.6 kg/h, 4 WAT)?
Answer: Its value is 2 (50-74% control).

Question: What about the “post-emergence herbicidal activity index” value (Barnyardgrass; Table I, 11.2 kg/h, 4 WAT) of the same compound?
Answer: Its value is 2 (50-74% control).

Question: What about the “post-emergence herbicidal activity index” value (Barnyardgrass; Table II, 0.28 kg/h, 2 WAT) of the same compound?
Answer: The value was 0 (0- 24% control).

Question: What about the “post-emergence herbicidal activity index” value (Barnyardgrass; Table II, 1.12 kg/h, 4 WAT) of the same compound?
Answer: The value was 0 (0- 24% control).

Question: And the “post-emergence herbicidal activity index” value (Barnyardgrass; Table II, 5.6 kg/h, 4 WAT)?
Answer: The value was 4 (100% control).

Question: What about the “post-emergence herbicidal activity index” value (Quackgrass; 5.6 kg/h) of the same compound?
Answer: The value was 2 (50-74% control).

Question: What about the “post-emergence herbicidal activity index” value (Quackgrass; 11.2 kg/h) of the same compound?
Answer: Its value is 1 (25-49% control).

Question: What about the “post-emergence herbicidal activity index” value (Rice; 0.28 kg/h, 2 WAT) of the same compound?
Answer: Its value is 0 (0- 24% control).

Question: What about the “post-emergence herbicidal activity index” value (Rice; 1.12 kg/h, 4 WAT) of the same compound?
Answer: Its value is 0 (0- 24% control).

Question: And the “post-emergence herbicidal activity index” value (Rice; 5.6 kg/h, 4 WAT)?
Answer: The value was 1 (25-49% control).

Question: And the “post-emergence herbicidal activity index” value (Smartweed; Table I, 5.6 kg/h, 4 WAT)?
Answer: Its value is 1 (25-49% control).

Question: What about the “post-emergence herbicidal activity index” value (Smartweed; Table I, 11.2 kg/h, 4 WAT) of the same compound?
Answer: Its value is 2 (50-74% control).

Question: And the “post-emergence herbicidal activity index” value (Smartweed; Table II, 0.28 kg/h, 2 WAT)?
Answer: The value was 0 (0- 24% control).

Question: What about the “post-emergence herbicidal activity index” value (Smartweed; Table II, 1.12 kg/h, 4 WAT) of the same compound?
Answer: Its value is 1 (25-49% control).

Question: And the “post-emergence herbicidal activity index” value (Smartweed; Table II, 5.6 kg/h, 4 WAT)?
Answer: The value was 2 (50-74% control).

Question: And the “post-emergence herbicidal activity index” value (Yellow Nutsedge; 5.6 kg/h)?
Answer: Its value is 0 (0- 24% control).

Question: And the “post-emergence herbicidal activity index” value (Yellow Nutsedge; 11.2 kg/h)?
Answer: The value was 1 (25-49% control).

Question: What about the “post-emergence herbicidal activity index” value (Canada Thistle; 5.6 kg/h) of the same compound?
Answer: Its value is 0 (0- 24% control).

Question: What about the “post-emergence herbicidal activity index” value (Canada Thistle; 11.2 kg/h) of the same compound?
Answer: The value was 1 (25-49% control).

Question: What about the “post-emergence herbicidal activity index” value (Panicum Spp; 0.28 kg/h, 2 WAT) of the same compound?
Answer: The value was 0 (0- 24% control).

Question: And the “post-emergence herbicidal activity index” value (Panicum Spp; 1.12 kg/h, 4 WAT)?
Answer: Its value is 0 (0- 24% control).

Question: And the “post-emergence herbicidal activity index” value (Panicum Spp; 5.6 kg/h, 4 WAT)?
Answer: The value was 3 (75-99% control).

Question: And the “post-emergence herbicidal activity index” value (Hemp Sesbania; 0.28 kg/h, 2 WAT)?
Answer: The value was 0 (0- 24% control).

Question: And the “post-emergence herbicidal activity index” value (Hemp Sesbania; 1.12 kg/h, 4 WAT)?
Answer: The value was 0 (0- 24% control).

Question: What about the “post-emergence herbicidal activity index” value (Hemp Sesbania; 5.6 kg/h, 4 WAT) of the same compound?
Answer: Its value is 1 (25-49% control).

Question: What about the “post-emergence herbicidal activity index” value (Cocklebur; Table I, 5.6 kg/h, 4 WAT) of the same compound?
Answer: The value was 1 (25-49% control).

Question: And the “post-emergence herbicidal activity index” value (Cocklebur; Table I, 11.2 kg/h, 4 WAT)?
Answer: Its value is 3 (75-99% control).

Question: What about the “post-emergence herbicidal activity index” value (Cocklebur; Table II, 0.28 kg/h, 2 WAT) of the same compound?
Answer: Its value is 0 (0- 24% control).

Question: What about the “post-emergence herbicidal activity index” value (Cocklebur; Table II, 1.12 kg/h, 4 WAT) of the same compound?
Answer: The value was 1 (25-49% control).

Question: And the “post-emergence herbicidal activity index” value (Cocklebur; Table II, 5.6 kg/h, 4 WAT)?
Answer: The value was 3 (75-99% control).

Question: What about the “post-emergence herbicidal activity index” value (Wheat; 0.28 kg/h, 2 WAT) of the same compound?
Answer: Its value is 0 (0- 24% control).

Question: What about the “post-emergence herbicidal activity index” value (Wheat; 1.12 kg/h, 4 WAT) of the same compound?
Answer: The value was 1 (25-49% control).

Question: And the “post-emergence herbicidal activity index” value (Wheat; 5.6 kg/h, 4 WAT)?
Answer: Its value is 3 (75-99% control).

Question: And the “post-emergence herbicidal activity index” value (Velvetleaf; Table I, 5.6 kg/h, 4 WAT)?
Answer: The value was 0 (0- 24% control).

Question: And the “post-emergence herbicidal activity index” value (Velvetleaf; Table I, 11.2 kg/h, 4 WAT)?
Answer: Its value is 1 (25-49% control).

Question: And the “post-emergence herbicidal activity index” value (Velvetleaf; Table II, 0.28 kg/h, 2 WAT)?
Answer: The value was 0 (0- 24% control).

Question: And the “post-emergence herbicidal activity index” value (Velvetleaf; Table II, 1.12 kg/h, 4 WAT)?
Answer: The value was 0 (0- 24% control).

Question: What about the “post-emergence herbicidal activity index” value (Velvetleaf; Table II, 5.6 kg/h, 4 WAT) of the same compound?
Answer: Its value is 2 (50-74% control).

Question: And the “post-emergence herbicidal activity index” value (Johnsongrass; 5.6 kg/h)?
Answer: The value was 2 (50-74% control).

Question: And the “post-emergence herbicidal activity index” value (Johnsongrass; 11.2 kg/h)?
Answer: The value was 0 (0- 24% control).
